Test results: patent publication US20090118255A1, “Crp Lowering Agent” (TAKEDA PHARMACEUTICAL COMPANY LIMITED, priority 2004, published 2009)

Tests used:
plasma CRP = experiment: Plasma CRP lowering effect, WHHL rat, 28 days oral with mixed food; type: in vivo; settings: male WHHL rat, mean ± SE, N = 11
Procedure: To 2 month-old male WHHL […] (11 per group) was orally administered with a mixed food a vehicle or Test compound 1 at a dose of 100 and 200 mg/kg for 28 days. Before administration and after 28 days administration, plasma CRP level was determined using CRPα Test Wako (Wako Pure Chemical Industries, Ltd.) with Hitachi, Ltd. Autoanalyzer 7070 (Table 1).

CRP = settings: literature reports (Ballantyne 2003; Sager 2003); cited from earlier work

Row | Compound | Plasma CRP level, after 28 days administration (plasma CRP; 100 mg/kg orally with mixed food for 28 days) [mg/dL] | Plasma CRP level, after 28 days administration (plasma CRP; 200 mg/kg orally with mixed food for 28 days, *P < 0.025 vs. control) | Plasma CRP level, value of before administration (plasma CRP; baseline of the 100 mg/kg group) [mg/dL] | Plasma CRP level, value of before administration (plasma CRP; baseline of the 200 mg/kg group) [mg/dL] | CRP lowering activity (CRP)
1 | COc1cccc([C@H]2O[C@H](CC(=O)N3CCC(CC(=O)O)CC3)C(=O)N(CC(C)(C)COC(C)=O)c3ccc(Cl)cc32)c1OC [Test compound 1, N-[[(3R,5S)-1-(3-acetoxy-2,2-dimethylpropyl)-7-chloro-5-(2,3-dimethoxyphenyl)-2-oxo-1,2,3,5-tetrahydro-4,1-benzoxazepin-3-yl]acetyl]piperidine-4-acetic acid] | 3.2 ± 0.6 | 2.1 ± 0.2* mg/dL | 4.4 ± 0.4 | 4.4 ± 0.6 | –
2 | O=C1[C@H](CC[C@H](O)c2ccc(F)cc2)[C@@H](c2ccc(O)cc2)N1c1ccc(F)cc1 [ezetimibe] | – | – | – | – | no CRP lowering activity
